Results on 1 compound are retold here after US7368572B2, “Acetylene derivatives as inhibitors of histone deacetylase” (Pharmacyclics, Inc., priority 2003, dated 2008).

This assay addresses HDAC-1 (Homo sapiens, UniProt Q13547). Briefly: Inhibition of HDAC in vitro (fluorogenic acetyl-Gly-Ala-(N-acetyl-Lys)-AMC / trypsin assay). It counts as biochemical. The following applies: HDAC-1 200 pM, 30 min preincubation, pH 7.4; inhibition constants obtained with BatchKi. How it is done:
The HDAC inhibitory activity of the compounds of this invention in vitro was determined as follows.
Measurements were performed in a reaction volume of 100 μL using 96-well assay plates. HDAC-1 (200 pM final concentration) in reaction buffer (50 mM HEPES, 100 mM KCl, 0.001% Tween-20, 5% DMSO, pH 7.4) was mixed with inhibitor at various concentrations and allowed to incubate for 30 min, after which trypsin and acetyl-Gly-Ala-(N-acetyl-Lys)-AMC were added to final concentrations of 50 nM and 25 μM, respectively, to initiate the reaction. Negative control reactions were performed in the absence of inhibitor in replicates of eight.
The reactions were monitored in a fluorescence plate reader. After a 30 min lag time, the fluorescence was measured over a 30 min time frame using an excitation wavelength of 355 nm and a detection wavelength of 460 nm. The increase in fluorescence with time was used as the measure of the reaction rate. Inhibition constants were obtained using the program BatchKi (Kuzmic et al. Anal. Biochem. 286, 45-50, (2000)).

Where a name gives a salt, the structure may show the parent alone.

HDAC-1, sequence (Q13547 whole entry, species assumed): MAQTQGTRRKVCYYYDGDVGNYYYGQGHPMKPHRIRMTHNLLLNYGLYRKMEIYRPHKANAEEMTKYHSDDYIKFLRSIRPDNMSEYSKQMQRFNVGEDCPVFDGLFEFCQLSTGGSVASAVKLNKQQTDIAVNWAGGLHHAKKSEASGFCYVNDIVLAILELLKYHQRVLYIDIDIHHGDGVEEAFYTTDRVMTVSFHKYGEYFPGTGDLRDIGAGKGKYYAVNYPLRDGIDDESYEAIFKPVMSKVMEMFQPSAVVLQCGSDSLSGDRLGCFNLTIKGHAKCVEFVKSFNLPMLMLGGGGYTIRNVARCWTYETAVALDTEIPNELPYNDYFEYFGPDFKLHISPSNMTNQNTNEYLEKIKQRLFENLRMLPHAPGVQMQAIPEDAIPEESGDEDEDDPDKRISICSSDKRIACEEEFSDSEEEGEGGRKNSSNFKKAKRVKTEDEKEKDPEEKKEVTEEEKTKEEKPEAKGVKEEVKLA

As for `CN(C)Cc1c(C(=O)NCC#Cc2ccc(C(=O)NO)cc2)oc2ccccc12` [Compound 22, Table I, N-hydroxy-4-[3-(3-N,N-dimethylaminomethylbenzofiuran-2-ylcarbonylamino)prop-1-ynyl]-benzamide hydrochloride], the Ki – broadly, the dissociation constant of the complex between target and ligand, obtained from inhibition or displacement – came out at 22 nM. That is a double-digit nanomolar value.
